According to patent US20080241080A1, “COMPOSITION FOR TREATING XEROSTOMIA OR DRY MOUTH” (BIOCOSMETICS, S.L., priority 2007, published 2008):

Assay: Dentin loss under extreme erosion conditions, composition versus its three ingredients separately (Example 8)
Set-up: species or system cow
Conditions: 10 cycles: 5 min pre-treatment, 1% citric acid pH 2.3 for 3 min; vs distilled water
Procedure: The protective capacity of a mouthwash formulated with olive oil, trimethylglycine and xylitol in dentin subjected to extreme erosion conditions was analysed, compared to that of aqueous solutions of the three ingredients separately in the same concentrations used in the mouthwash tested. For the evaluation of effects a control was included consisting of distilled water.
Incisive teeth extracted from a cow's jaw were used, which were immersed in a 0.5% thymol solution at room temperature. The teeth were sectioned at the cementum-enamel junction by means of a water-cooled diamond scalpel (Exakt, Norderstedt, Germany), and the crowns and roots were embedded in acrylic resin cylinders (Paladur, Heraeus Kulzer, Wehrheim, Germany). Radicular cementum was completely eliminated. […]
Dentin loss was quantified performing profile or profilometric measurements (Mahr Perthometer, Göttingen, Germany). […] After the experiment the adhesive tapes were removed and the samples were analysed again. The average depth of the eroded surfaces was thus calculated with respect to basic surface profiles by means of specific software (Mahr Perthometer Concept 7.0, Mahr, Göttingen, Germany).
Dentin loss was calculated (mean±standard deviation) for each group and statistically analysed by Student's t test followed by Bonferroni's t test for multiple comparisons (Statistica 6.0, Statsoft, Tulsa, USA).

| SMILES | protective effect on dentin against erosion |
| --- | --- |
| OC[C@@H](O)[C@H](O)[C@@H](O)CO [1% xylitol solution, xylitol] | did not demonstrate any protective effect |
| C[N+](C)(C)CC(=O)[O-] [2% trimethylglycine solution, trimethylglycine] | did not demonstrate any protective effect |
